From patent US7812039B2, “Drugs for chronic pains” (Nicox S.A., priority 2001, dated 2010)

Experiments:
[1] = tested on: Human cells of the umbilical vein; assay: NO generation from NO-donors with endothelial cells, chemiluminescence; type: cell-based; details: incubation of 100 μM, 5 minutes
Description: (§1) The test relates to the nitric oxide generation from the NO-donors, for example nitroglycerin, niocorandil, nitroprussiate, etc., in the presence of endothelial cells (method a) or platelets (method b). • a) Endothelial Cells • Human cells of the umbilical vein, cultured on plates, having a 10^3 density cells/well were incubated for 5 minutes with scalar concentrations of NO-donor (1-100 μg/ml). The incubation medium (physiologic solution, for example Tyrode) was then analyzed to determine the capability to generate NO of the compound under test, by means of: • 1) nitric oxide detection by chemiluminescence; • 2) cGMP determination (cyclic GMP n° 2715 of the above mentioned Merck). • For the analysis by chemiluminescence, an amount equal to 100 μl was injected in the reaction chamber of a chemiluminescence analyzer containing glacial acetic acid and potassium iodide. The nitrites/nitrates present in the medium, under these conditions are converted into NO which is then detected after reaction with ozone, which produces light. In the equipments which measure the chemiluminescence, the luminescence produced is directly proportional to the generated NO levels and can be measured by a suitable photomultiplying unit of a chemiluminescence analyzer. The photomultiplier converts the incident light in electric voltage, which is quantitatively recorded. […]

Washed human platelets = assay: NO generation from NO-donors with platelets, chemiluminescence; type: cell-based; details: incubation of 100 μM, 5 minutes
Description: as §1

O=C(NCCO[N+](=O)[O-])c1cccnc1 [nicorandil]
amount of NO generated [1]: about 10 μM | amount of NO generated (Washed human platelets): 35 µM
